# Data published in patent US12226386B2, “Compositions and methods for treating biofilms” (The Regents of the University of California, priority 2018, dated 2025).
# What was measured:
# [1] = system: Candida and Staphylococcus biofilms; assay: biofilm assays (sustained inhibition and disruption), bacterial and fungal; format: cell-based, Candida albicans; Staphylococcus aureus; details: in both assays (sustained inhibition and disruption)
# Procedure: (§1) In vitro biofilm formation was tested using two assays, sustained inhibition and disruption. Both assays assess biofilm formed on polystyrene plates. The first, tests the effects of amino acid solution on a developing biofilm, while the latter tests the effects of the solution on a pre-formed mature biofilm, both compared to media without supplemented amino acids.
# (§2) Other amino acids in the blood of animals could combat bacterial and fungal biofilm and therefore may be useful in treating these bacterial and fungal infections that would lie on the external surfaces of infected animals such as humans and could also be used to combat these pathogens on instruments and surfaces that need to be treated. Two types of biofilm assays were performed: a sustained inhibition assay and a disruption assay. The sustained inhibition assay assessed the compound's ability to prevent biofilm development throughout all stages of biofilm formation, while the disruption assay assessed the compound's ability to break up an existing mature biofilm.
# (§3) For fungal biofilm assays, all solutions were prepared in RPMI 1640 medium. All bacterial biofilm solutions were prepared in Tryptic Soy Broth (TSB), supplemented with 1% glucose (henceforth referred to as TSB-G). All subsequent procedures were performed in a manner that maintained sterility. A solution of each amino acid to be tested was prepared in weight to volume concentrations ranging from 0.1-5.0%. Amino acids were also tested in combinations. Compound solutions were homogenized with gentle agitation in the dark (4° C., 24 hours) before use.
# (§4) Fungal strains were streaked on Yeast Peptone Dextrose (YPD) agar plates and incubated at 30° C. for 48 hours. A single colony from each strain to be tested was inoculated into YPD broth and grown for 12 hours, at 30° C., shaking at 225 rpm. For the fungal biofilm inhibition assay, 1 μl of saturated overnight cell culture was added to either 80 μL of RPMI-1640 or RPMI-1640 supplemented with the amino acid compound solution to be tested, in a 384-well plate. The cells were allowed to adhere to the plate for 90 minutes at 37° C. shaking at 350 rpm. Loosely bound cells were washed once with phosphate buffered saline (PBS) and 80 μl of RPMI-1640, or RPMI-1640 supplemented with the amino acid compound solution was added to the plate. The plate was further incubated for 24 hours at 37° C. shaking at 350 rpm. Media was carefully aspirated and the biofilm was measured by optical density at 600 nm. Twelve replicates were performed for each tested condition and the reported values are normalized to the control (RPMI-1640 media only). For the fungal biofilm disruption assays, 80 μL of RPMI-1640 was added to the plate, along with 1 μL of overnight cell culture. The cells were allowed to adhere to the plate for 90 minutes at 37° C. shaking at 350 rpm. Loosely bound cells were washed once with PBS and 80 μL of RPMI-1640 was added to the plate. The plate was further incubated for 24 hours at 37° C. shaking at 350 rpm. Media was carefully aspirated from the mature biofilm and 80 μL of RPMI-1640, or RPMI-1640 supplemented with the amino acid compound solution to be tested, was gently added to the plate. The plate was further incubated for 24 hours at 37° C. shaking at 350 rpm. Media was carefully aspirated and the biofilm was measured by optical density at 600 nm. Twelve replicates were performed for each tested condition and the reported values are normalized to the control (RPMI-1640 media only).
# Bacterial strains were streaked on Blood Agar plates (5% sheep blood in Tryptic Soy Agar) and incubated at 37° C. for 24 hours. A single colony from each strain to be tested was inoculated in a TSB broth and grown for 12 hours, at 37° C. shaking at 225 rpm. For the bacterial biofilm inhibition assays, 1 μL of saturated overnight cell culture was added to either 80 μL of TSB-G, or TSB-G supplemented with the amino acid compound solution to be tested, in a 384-well plate. […]
# C. albicans biofilms [2] = assay: in vitro sustained inhibition biofilm assay, fungal; format: cell-based, Candida albicans; details: 1% amino acid, p<0.001
# Procedure: (§5) Two types of biofilm assays were performed: a sustained inhibition assay and a disruption assay.
# as §3
# as §4, with “The cells were allowed to adhere to the plate for 90 minutes at 37° C. shaking at 350 rpm. Loosely bound cells were washed once with phosphate buffered saline (PBS) and 80 μl of RPMI-1640, or RPMI-1640 supplemented with the amino acid compound solution was added to the plate. The plate was further incubated for 24 hours at 37° C. shaking at 350 rpm.” left out, “The cells were allowed to adhere to the plate for 90 minutes at 37° C. shaking at 350 rpm.” left out, “The plate was further incubated for 24 hours at 37° C. shaking at 350 rpm.” left out
# The plate was further incubated for 24 hours at 37° C. with shaking (350 rpm). Media was carefully aspirated and the biofilm was measured by optical density at 600 nm.
# [3] = system: S. aureus (MRSA) biofilms; assay: in vitro biofilm disruption assay, bacterial; format: cell-based; details: Staphylococcus aureus, 24 h, disruption, S. aureus, 1% amino acid; for inhibition at 1 %: p<0.001, read-out: Reduce B Biofilm
# Procedure: as §1, §2, §3
# (§6) Bacterial strains were streaked on Blood Agar plates (5% sheep blood in Tryptic Soy Agar) and incubated at 37° C. for 24 hours. A single colony from each strain to be tested was inoculated in a TSB broth and grown for 12 hours, at 37° C. shaking at 225 rpm. For the bacterial biofilm inhibition assays, 1 μL of saturated overnight cell culture was added to either 80 μL of TSB-G, or TSB-G supplemented with the amino acid compound solution to be tested, in a 384-well plate. The cells were allowed to adhere to the plate for 60 minutes at 37° C. without shaking. The media was carefully aspirated and 80 μL of TSB-G, or TSB-G supplemented with the amino acid compound solution was added to the plate. The plate was further incubated for 24 hours at 37° C. without shaking. Media was carefully aspirated and the biofilm was measured by optical density at 600 nm. Eight or twelve replicates were performed for each tested condition and the reported values are normalized to the control (TSB-G media only). For the bacterial biofilm disruption assays, 80 μL of TSB-G was added to the plate, along with 1 μL of overnight cell culture. The cells were allowed to adhere to the plate for 60 minutes at 37° C. with no shaking. The media was carefully aspirated and 80 μL of TSB-G was added to the plate. The plate was further incubated for 24 hours at 37° C. with no shaking. Media was carefully aspirated from the mature biofilm and 80 μL of TSB-G, or TSB-G supplemented with the amino acid to be tested, was gently added to the plate. The plate was further incubated for 24 hours at 37° C. without shaking. Media was aspirated and the biofilm was measured by optical density at 600 nm. Twelve replicates were performed for each tested condition and the reported values are normalized to the control (TSB-G media only).
# For disruption assay, 80 μl of TSB-G was added to the plate, along with 1 μl of overnight cell culture. The cells were allowed to adhere to the plate for 60 minutes at 37° C. with no shaking. The media was carefully aspirated and 80 μl of TSB-G was added to the plate. The plate was further incubated for 24 hours at 37° C. with no shaking. Media was carefully aspirated from the mature biofilm and 80 μl of TSB-G, or TSB-G supplemented with the amino acid to be tested, was added drop wise to the plate. The plate was further incubated for 24 hours at 37° C. with no shaking. […]
# [4] = system: fungal biofilms (C. albicans); assay: biofilm assays (sustained inhibition and/or disruption), fungal; format: cell-based, Candida albicans; details: in at least one of the two biofilm assays; for anti-biofilm properties against fungal biofilms: administered individually
# Procedure: Other amino acids in the blood of animals could combat bacterial and fungal biofilm and therefore may be useful in treating these bacterial and fungal infections that would lie on the external surfaces of infected animals such as humans and could also be used to combat these pathogens on instruments and surfaces that need to be treated. Two types of biofilm assays were performed: a sustained inhibition assay and a disruption assay. The sustained inhibition assay assessed the compound's ability to prevent biofilm development throughout all stages of biofilm formation, while the disruption assay assessed the compound's ability to break up an existing mature biofilm. For fungal biofilm assays, all solutions were prepared in RPMI 1640 medium. All bacterial biofilm solutions were prepared in Tryptic Soy Broth (TSB), supplemented with 1% glucose (henceforth referred to as TSB-G). All subsequent procedures were performed in a manner that maintained sterility. […] Amino acids were also tested in combinations. Compound solutions were homogenized with gentle agitation in the dark (4° C., 24 hours) before use. Fungal strains were streaked on Yeast Peptone Dextrose (YPD) agar plates and incubated at 30° C. for 48 hours. A single colony from each strain to be tested was inoculated into YPD broth and grown for 12 hours, at 30° C., shaking at 225 rpm. For the fungal biofilm inhibition assay, 1 μl of saturated overnight cell culture was added to either 80 μL of RPMI-1640 or RPMI-1640 supplemented with the amino acid compound solution to be tested, in a 384-well plate. The cells were allowed to adhere to the plate for 90 minutes at 37° C. shaking at 350 rpm. Loosely bound cells were washed once with phosphate buffered saline (PBS) and 80 μl of RPMI-1640, or RPMI-1640 supplemented with the amino acid compound solution was added to the plate. The plate was further incubated for 24 hours at 37° C. shaking at 350 rpm. Media was carefully aspirated and the biofilm was measured by optical density at 600 nm. Twelve replicates were performed for each tested condition and the reported values are normalized to the control (RPMI-1640 media only). For the fungal biofilm disruption assays, 80 μL of RPMI-1640 was added to the plate, along with 1 μL of overnight cell culture. The cells were allowed to adhere to the plate for 90 minutes at 37° C. shaking at 350 rpm. Loosely bound cells were washed once with PBS and 80 μL of RPMI-1640 was added to the plate. The plate was further incubated for 24 hours at 37° C. shaking at 350 rpm. Media was carefully aspirated from the mature biofilm and 80 μL of RPMI-1640, or RPMI-1640 supplemented with the amino acid compound solution to be tested, was gently added to the plate. The plate was further incubated for 24 hours at 37° C. shaking at 350 rpm. Media was carefully aspirated and the biofilm was measured by optical density at 600 nm. Twelve replicates were performed for each tested condition and the reported values are normalized to the control (RPMI-1640 media only).
# C. albicans biofilms [5] = assay: in vitro biofilm disruption assay, fungal; format: cell-based, Candida albicans; details: 1% amino acid, p<0.001
# Procedure: as §5, §3
# as §4, with “The cells were allowed to adhere to the plate for 90 minutes at 37° C. shaking at 350 rpm. Loosely bound cells were washed once with phosphate buffered saline (PBS) and 80 μl of RPMI-1640, or RPMI-1640 supplemented with the amino acid compound solution was added to the plate. The plate was further incubated for 24 hours at 37° C. shaking at 350 rpm.” left out, “The cells were allowed to adhere to the plate for 90 minutes at 37° C. shaking at 350 rpm.” left out, “The plate was further incubated for 24 hours at 37° C. shaking at 350 rpm.” left out
# The cells were allowed to adhere to the plate for 90 minutes at 37° C. with shaking (350 rpm). […] The plate was further incubated for 24 hours at 37° C. with shaking (350 rpm). […] The plate was further incubated for 24 hours at 37° C. with shaking (350 rpm). Media was carefully aspirated and the biofilm was measured by optical density at 600 nm.
# [6] = system: bacterial biofilms (MRSA); assay: biofilm assays (sustained inhibition and/or disruption), bacterial; format: cell-based, Staphylococcus aureus; details: in at least one of the two biofilm assays
# Procedure: as §2, §3, §6
structure (smiles),measurement,setting,value
"Cn1cnc(C[C@H](N)C(=O)O)c1 [1-Methylhistidine, 1-methyl-L-histidine]",effect on bacterial or fungal biofilms,[1],neutral
"CCC(N)C(=O)O (stereo not drawn) [2 Aminobutyric Acid, 2-aminobutyric acid]",effect on bacterial or fungal biofilms,[1],neutral
"Cn1cncc1C[C@H](N)C(=O)O [3-Methylhistidine, 3-methyl-L-histidine]",Promote F Biofilm,C. albicans biofilms [2],● (a single dot [i.e. ●] signifies minor effect (from about 10 to about 30% change))
same,inhibition at 1 %,[3],10 to 30%
same,effect on fungal biofilm growth,[4],support (improve) fungal biofilm growth
"NCCO [Ethanolamine, ethanolamine]",Reduce F Biofilm,C. albicans biofilms [2],● (a single dot [i.e. ●] signifies minor effect (from about 10 to about 30% change))
same,anti-biofilm properties against fungal biofilms,[4],reduction by less than two-fold
"NC(=O)CC[C@H](N)C(=O)O [Glutamine, L-glutamine]",effect on bacterial or fungal biofilms,[1],neutral
"N[C@@H](Cc1c[nH]cn1)C(=O)O [Histidine, L-histidine]",effect on bacterial or fungal biofilms,[1],neutral
"N[C@@H](COP(=O)(O)O)C(=O)O [Phosphoserine, O-phospho-L-serine]",Reduce F Biofilm,C. albicans biofilms [5],● (a single dot [i.e. ●] signifies minor effect (from about 10 to about 30% change))
same,inhibition at 1 %,[3],10 to 30%
same,anti-biofilm properties against fungal biofilms,[4],reduction by less than two-fold
"O=C(O)[C@@H]1CCCN1 [Proline, L-proline]",Reduce F Biofilm,C. albicans biofilms [5],● (a single dot [i.e. ●] signifies minor effect (from about 10 to about 30% change))
same,activation at 1 %,"[3]; p<0.001, read-out: Promote B Biofilm",10 to 30%
same,anti-biofilm properties against fungal biofilms,[4],reduction by less than two-fold
same,effect on bacterial biofilm growth,[6],support (improve) bacterial biofilm growth
"N[C@@H](Cc1c[nH]c2ccccc12)C(=O)O [Tryptophan, L-tryptophan]",effect on bacterial or fungal biofilms,[1],neutral
"N[C@@H](Cc1ccc(O)cc1)C(=O)O [Tyrosine, L-tyrosine]",effect on bacterial or fungal biofilms,[1],neutral
"CC(C)[C@H](N)C(=O)O [Valine, L-valine]",Promote F Biofilm,C. albicans biofilms [2],● (a single dot [i.e. ●] signifies minor effect (from about 10 to about 30% change))
same,inhibition at 1 %,[3],10 to 30%
same,effect on fungal biofilm growth,[4],support (improve) fungal biofilm growth
